By pIC50 is commonly meant the IC50 on a negative log10 scale, so that one unit is a factor of ten.

The text below walks through data of patent US8759334B2, “Compounds useful for the treatment of metabolic and inflammatory diseases” (Galapagos NV, priority 2011, dated 2014).

pIC50: −log10 of the molar value.

The assay deals with T1, GPR43 (Homo sapiens, UniProt O15552).
T1 construct: expressed in transfected cells
T1 sequence (O15552 1-330): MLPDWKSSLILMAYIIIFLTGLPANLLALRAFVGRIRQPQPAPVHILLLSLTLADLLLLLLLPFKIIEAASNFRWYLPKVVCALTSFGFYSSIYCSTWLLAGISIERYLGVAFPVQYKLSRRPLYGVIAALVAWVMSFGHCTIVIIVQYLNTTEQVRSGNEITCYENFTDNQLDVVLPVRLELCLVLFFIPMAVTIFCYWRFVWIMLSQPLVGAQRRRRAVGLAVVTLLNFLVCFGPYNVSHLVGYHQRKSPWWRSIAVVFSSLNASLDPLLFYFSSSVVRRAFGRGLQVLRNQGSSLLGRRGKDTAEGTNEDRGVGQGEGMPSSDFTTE
Description: Calcium mobilization assay with probenecid. Type of assay: cell-based. Particulars: GPR43 stably expressing cells; triggered with sodium acetate at EC80; 2.5 mM probenecid; read-out: GPR43 assay with probenicid IC50. The protocol: The following assay can be used for determination of GPR43 activation. The assay measures intracellular calcium release induced by activation of GPR43. On day 1, GPR43 stably expressing cells were detached with mild trypsinization (Trypsin, 0.25% with EDTA 4Na, 5× diluted in PBS) centrifuged at 1000 rpm for 5 min and resuspended at 6.000 cells/25 […] medium (DMEM supplemented with 10% FBS, 10 μg/mL puromycin and 1% Pen/Strep). The cells were distributed in poly-D-lysine coated 384 well plates (black with clear bottom, 25 μL/well) and incubated overnight at 37° C. 10% CO2.
On day 2, 25 μL of a fluorescent Ca^2+ indicator (Calcium 4 assay; Molecular Devices) supplemented with 2.5 mM probenecid was added on top of the cells and incubated for 2 h at 37° C. Subsequently, compounds at increasing concentration (10 μL/well) were added to the plate and incubated for 15 min at 37° C.
To measure agonist activity of the compounds, compound was added to the well and the Ca^2+-flux was measured simultaneously to the […] of compound.
For orientation: Calcium flux is commonly read through the fluorescence of an indicator in the cells.

Consider `CCOC(=O)CCCN(Cc1ccc(C(F)(F)F)cc1)C(=O)C1(C)CCN1C(=O)Cc1csc2ccccc12` (stereo not drawn) [Compound 142, 4-[[1-(2-Benzo[b]thiophen-3-yl-acetyl)-2-methyl-azetidine-2-carbonyl]-(4-trifluoromethyl-benzyl)-amino]-butyric acid ethyl ester], for which the pIC50 is < 6.00.
For `CCOC(=O)CCCN(Cc1cccc(Cl)c1)C(=O)C1(C)CCN1C(=O)c1csc2ccccc12` (stereo not drawn) [Compound 143, ethyl 4-(1-(benzo[b]thiophene-3-carbonyl)-N-(3-chlorobenzyl)-2-methylazetidine-2-carboxamido)butanoate] the value was < 6.00; for `CC1(C(=O)N(CCCC(=O)O)Cc2ccc(C(F)(F)F)cc2)CCN1C(=O)c1csc2ccccc12` (stereo not drawn) [Compound 145, 4-[[1-(Benzo[b]thiophene-3-carbonyl)-2-methyl-azetidine-2-carbonyl]-(4-trifluoromethyl-benzyl)-amino]-butyric acid], 6.30 to 7.00.
For `CCOC(=O)CCCN(Cc1cccc(Cl)c1)C(=O)C1(C)CCN1C(=O)Cc1csc2ccccc12` (stereo not drawn) [Compound 147, 4-[[1-(2-Benzo[b]thiophen-3-yl-acetyl)-2-methyl-azetidine-2-carbonyl]-(3-chloro-benzyl)-amino]-butyric acid ethyl ester] the value was 6.00 to 6.30.
`CC1(C(=O)N(CCCC(=O)O)Cc2cccc(Cl)c2)CCN1C(=O)Cc1csc2ccccc12` (stereo not drawn) [Compound 148, 4-[[1-(2-Benzo[b]thiophen-3-yl-acetyl)-2-methyl-azetidine-2-carbonyl]-(3-chloro-benzyl)-amino]-butyric acid]: the pIC50 is 6.00 to 6.30.
For `Cc1cc(C)cc(CC(=O)N2CCC2(C)C(=O)N(CCCN2CCCC2=O)Cc2ccc(Cl)cc2)c1` (stereo not drawn) [Compound 149, 1-[2-(3,5-Dimethyl-phenyl)-acetyl]-2-methyl-azetidine-2-carboxylic acid (4-chloro-benzyl)-[3-(2-oxo-pyrrolidin-1-yl)-propyl]-amide] the value was < 6.00; for `COC(=O)CCN(Cc1ccc(Cl)cc1)C(=O)C1(C)CCN1C(=O)Cc1coc2ccccc12` (stereo not drawn) [Compound 150, 3-[[1-(2-Benzofuran-3-yl-acetyl)-2-methyl-azetidine-2-carbonyl]-(4-chloro-benzyl)-amino]-propionic acid methyl ester], 6.30 to 7.00.
Regarding `COC(=O)CCN(Cc1ccc(Cl)cc1)C(=O)C1(C)CCN1C(=O)c1csc2ccccc12` (stereo not drawn) [Compound 151, 3-[[1-(Benzo[b]thiophene-3-carbonyl)-2-methyl-azetidine-2-carbonyl]-(4-chloro-benzyl)-amino]-propionic acid methyl ester], the pIC50 is 6.30 to 7.00.
For `CCOC(=O)CCCN(Cc1ccc2cn[nH]c2c1)C(=O)C1(C)CCN1C(=O)Cc1coc2ccccc12` (stereo not drawn) [Compound 152, 4-[[1-(2-Benzofuran-3-yl-acetyl)-2-methyl-azetidine-2-carbonyl]-(1H-indazol-6-ylmethyl)-amino]-butyric acid ethyl ester], the pIC50 is 6.30 to 7.00.
For `CCOC(=O)CCCN(Cc1ccc2cn[nH]c2c1)C(=O)C1(C)CCN1C(=O)c1csc2ccccc12` (stereo not drawn) [Compound 153, 4-[[1-(Benzo[b]thiophene-3-carbonyl)-2-methyl-azetidine-2-carbonyl]-(1H-indazol-6-ylmethyl)-amino]-butyric acid ethyl ester] the value was 6.30 to 7.00; for `CC1(C(=O)N(CCC(=O)O)Cc2ccc(Cl)cc2)CCN1C(=O)Cc1coc2ccccc12` (stereo not drawn) [Compound 154, 3-[[1-(2-Benzofuran-3-yl-acetyl)-2-methyl-azetidine-2-carbonyl]-(4-chloro-benzyl)-amino]-propionic acid], < 6.00; for `CC1(C(=O)N(CCCC(=O)O)Cc2ccc3cn[nH]c3c2)CCN1C(=O)Cc1coc2ccccc12` (stereo not drawn) [Compound 156, 4-[[1-(2-Benzofuran-3-yl-acetyl)-2-methyl-azetidine-2-carbonyl]-(1H-indazol-6-ylmethyl)-amino]-butyric acid], 6.30 to 7.00.
For `CC1(C(=O)N(CCCC(N)=O)Cc2ccc(Cl)cc2)CCN1C(=O)c1csc2ccccc12` (stereo not drawn) [Compound 158, 1-(Benzo[b]thiophene-3-carbonyl)-2-methyl-azetidine-2-carboxylic acid (3-carbamoyl-propyl)-(4-chloro-benzyl)-amide] the value was 6.30 to 7.00; for `Cc1cc(C)cc(CC(=O)N2CCC2(C)C(=O)N(CCCC(=O)O)Cc2ccc(C(F)(F)F)cc2)c1` (stereo not drawn) [Compound 159, 4-[{1-[2-(3,5-Dimethyl-phenyl)-acetyl]-2-methyl-azetidine-2-carbonyl}-(4-trifluoromethyl-benzyl)-amino]-butyric acid], 6.00 to 6.30; for `CC1(C(=O)N(CCCC(=O)O)Cc2ccc(C(F)(F)F)cc2)CCN1C(=O)Cc1coc2ccccc12` (stereo not drawn) [Compound 160, 4-[[1-(2-Benzofuran-3-yl-acetyl)-2-methyl-azetidine-2-carbonyl]-(4-trifluoromethyl-benzyl)-amino]-butyric acid], 6.30 to 7.00.
Regarding `Cc1cc(C)cc(CC(=O)N2CCC2(C)C(=O)N(CCCC(=O)O)Cc2cccc(Cl)c2)c1` (stereo not drawn) [Compound 161, 4-((3-Chloro-benzyl)-{1-[2-(3,5-dimethyl-phenyl)-acetyl]-2-methyl-azetidine-2-carbonyl}-amino)-butyric acid], the pIC50 was < 6.00.
For `Cc1cc(C)cc(CC(=O)N2CCC2(C)C(=O)N(CCCC(=O)O)Cc2ccc3ccoc3c2)c1` (stereo not drawn) [Compound 162, 4-(Benzofuran-6-ylmethyl-{1-[2-(3,5-dimethyl-phenyl)-acetyl]-2-methyl-azetidine-2-carbonyl}-amino)-butyric acid] the value was 6.00 to 6.30; for `CC1(C(=O)N(CCCC(=O)O)Cc2ccc3ccoc3c2)CCN1C(=O)c1csc2ccccc12` (stereo not drawn) [Compound 163, 4-{[1-(Benzo[b]thiophene-3-carbonyl)-2-methyl-azetidine-2-carbonyl]-benzofuran-6-ylmethyl-amino}-butyric acid], 6.30 to 7.00; for `CC1(C(=O)N(CCCC(=O)O)Cc2ccc3ccoc3c2)CCN1C(=O)Cc1coc2ccccc12` (stereo not drawn) [Compound 164, 4-{[1-(2-Benzofuran-3-yl-acetyl)-2-methyl-azetidine-2-carbonyl]-benzofuran-6-ylmethyl-amino}-butyric acid], 6.30 to 7.00.
For `CCOC(=O)CCCN(Cc1ccc(C(F)(F)F)cc1)C(=O)C1(C)CCN1C(=O)Cc1cc(C)cc(C)c1` (stereo not drawn) [Compound 165, 4-[{1-[2-(3,5-Dimethyl-phenyl)-acetyl]-2-methyl-azetidine-2-carbonyl}-(4-trifluoromethyl-benzyl)-amino]-butyric acid ethyl ester] the value was 6.00 to 6.30.
As to `CC1(C(=O)N(CCCC(N)=O)Cc2ccc(Cl)cc2)CCN1C(=O)Cc1coc2ccccc12` (stereo not drawn) [Compound 166, 1-(2-Benzofuran-3-yl-acetyl)-2-methyl-azetidine-2-carboxylic acid (3-carbamoyl-propyl)-(4-chloro-benzyl)-amide], the pIC50 was 6.30 to 7.00.
Turning to `CCOC(=O)CCCN(Cc1ccc(C(F)(F)F)cc1)C(=O)C1(C)CCN1C(=O)Cc1coc2ccccc12` (stereo not drawn) [Compound 167, 4-[[1-(2-Benzofuran-3-yl-acetyl)-2-methyl-azetidine-2-carbonyl]-(4-trifluoromethyl-benzyl)-amino]-butyric acid ethyl ester], the pIC50 was < 6.00.
The figure for `COc1ccc(CNS(=O)(=O)CCCN(Cc2ccc(Cl)cc2)C(=O)C2(C)CCN2C(=O)Cc2cc(C)cc(C)c2)c(OC)c1` (stereo not drawn) [Compound 168, 1-[2-(3,5-Dimethyl-phenyl)-acetyl]-2-methyl-azetidine-2-carboxylic acid (4-chloro-benzyl)-[3-(2,4-dimethoxy-benzylsulfamoyl)-propyl]-amide] is < 6.00.
For `CC1(C(=O)N(CCC(=O)O)Cc2cccc(Cl)c2)CCN1C(=O)Cc1csc2ccccc12` (stereo not drawn) [Compound 170, 3-[[1-(2-Benzo[b]thiophen-3-yl-acetyl)-2-methyl-azetidine-2-carbonyl]-(3-chloro-benzyl)-amino]-propionic acid], the pIC50 is 6.30 to 7.00.
The figure for `Cc1cc(C)cc(CC(=O)N2CCC2(C)C(=O)N(CCCS(N)(=O)=O)Cc2ccc(Cl)cc2)c1` (stereo not drawn) [Compound 171, 1-[2-(3,5-Dimethyl-phenyl)-acetyl]-2-methyl-azetidine-2-carboxylic acid (4-chloro-benzyl)-(3-sulfamoyl-propyl)-amide] is 6.30 to 7.00; for `COC(=O)CCN(Cc1cccc(Cl)c1)C(=O)C1(C)CCN1C(=O)c1csc2ccccc12` (stereo not drawn) [Compound 172, 3-[[1-(Benzo[b]thiophene-3-carbonyl)-2-methyl-azetidine-2-carbonyl]-(3-chloro-benzyl)-amino]-propionic acid methyl ester] it is 6.30 to 7.00.
In the case of `COC(=O)CCN(Cc1cccc(Cl)c1)C(=O)C1(C)CCN1C(=O)Cc1csc2ccccc12` (stereo not drawn) [Compound 173, 3-[[1-(2-Benzo[b]thiophen-3-yl-acetyl)-2-methyl-azetidine-2-carbonyl]-(3-chloro-benzyl)-amino]-propionic acid methyl ester], the pIC50 was 6.30 to 7.00.
